The target in experiment [1] is T1, 14-3-3σ/ERα (Homo sapiens, UniProt P03372+P31947).
T1 construct: The 14-3-3 σ isoform (full-length for mass spectrometry and fluorescence anisotropy assays, ΔC for crystallography); made in house; host or cells: E. coli Rosetta 2(DE3)pLysS, pPROEX HTb vector
Put plainly: Mass spectrometry dose response, compound binding to 14-3-3σ in the presence of ERα phosphopeptide. The settings on record: 100 nM compound, 100 nM 14-3-3σ, ERα-peptide 2 µM. Put shortly: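 Covalent labeling of Cys38 on 14-3-3σ was tracked by LC-MS on a Waters Acquity UPLC/Xevo G2-XS Q-Tof, with samples desalted on a Protein BEH-C4 column. Full-length wild type 14-3-3σ (100 nM) plus ERα phosphopeptide was mixed with compound in 10 mM TRIS, pH 8.0, at 50 μl per well. Percent bound was measured at several time points.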

Experiment [2] has as its target T1, 14-3-3σ/ERα. Put plainly: Fluorescence anisotropy compound titration, FAM-labeled ERα peptide. The settings on record: EC50 value ERα (FA compound titration), 10 nM ERα-FAM labeled peptide, 1 µM 14-3-3σ, overnight incubation (24 h). The format is binding. Put shortly: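 Fluorescence anisotropy compound titration measuring stabilization of the 14-3-3σ/ERα interaction: compounds were titrated in a 2-fold dilution series (starting at 500 or 1000 µM) into a mix of 10 nM fluorescein-labeled ERα peptide and 1 µM 14-3-3σ (about EC25 of the complex) in HEPES buffer with 1% DMSO, read after overnight incubation at room temperature; EC50 from 4PL fitting.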
In general terms: Fluorescence polarisation rises when a labelled molecule tumbles more slowly, as on binding a larger partner.

The next experiment addresses T2, 14-3-3σ/C-RAF (Homo sapiens, UniProt P31947).
T2 construct: The 14-3-3 σ isoform (full-length for mass spectrometry and fluorescence anisotropy assays, ΔC for crystallography); made in house; host or cells: E. coli Rosetta 2(DE3)pLysS, pPROEX HTb vector
T2 sequence (P31947 1-248): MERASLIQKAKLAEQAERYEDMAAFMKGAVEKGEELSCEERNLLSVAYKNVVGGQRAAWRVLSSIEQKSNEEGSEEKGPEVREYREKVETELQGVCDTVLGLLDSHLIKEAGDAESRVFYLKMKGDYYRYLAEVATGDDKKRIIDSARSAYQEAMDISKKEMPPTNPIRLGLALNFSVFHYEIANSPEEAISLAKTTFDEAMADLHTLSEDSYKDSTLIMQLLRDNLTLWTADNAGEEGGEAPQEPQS
Put plainly: Mass spectrometry dose response, compound binding to 14-3-3σ in the presence of C-RAF phosphopeptide. The settings on record: 100 nM compound, 100 nM 14-3-3σ, C-RAF peptide 18 µM. Put shortly: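 Covalent binding of compounds to the native Cys38 of 14-3-3σ was monitored by LC-MS on a Waters Acquity UPLC/Xevo G2-XS Q-Tof, with samples desalted on a BEH-C4 column. Full-length wild type 14-3-3σ (100 nM) with C-RAF peptide in TRIS buffer (10 mM, pH 8.0) was incubated with compound dose series at room temperature.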

In a further experiment the target is T3, 14-3-3σ (Homo sapiens, UniProt P31947).
T3 construct: The 14-3-3 σ isoform (full-length for mass spectrometry and fluorescence anisotropy assays, ΔC for crystallography); made in house; host or cells: E. coli Rosetta 2(DE3)pLysS, pPROEX HTb vector
T3 sequence (P31947 1-248): T2 sequence (P31947 1-248)
Put plainly: Mass spectrometry dose response, compound binding to 14-3-3σ in the absence of peptide (apo). As to conditions: 100 nM compound, 100 nM 14-3-3σ. The procedure, abridged: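 Covalent binding of compounds to Cys38 of full-length wild type human 14-3-3σ (100 nM) was measured by LC-MS without peptide present. Compounds from 50 mM DMSO stocks were serially diluted 3-fold and 1000 nl transferred to plates in TRIS buffer (10 mM, pH 8.0), 50 μl per well. Samples were desalted on a BEH-C4 column and analysed on a Xevo G2-XS Q-Tof at several time points.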

The target in experiment [3] is T1, 14-3-3σ/ERα. Put plainly: Fluorescence anisotropy compound titration, FAM-labeled ERα peptide. As to conditions: labeling in MS assay, peptide binding in FA assay.

By EC50 is commonly meant the midpoint of the concentration-response curve.

On to `C=CS(=O)(=O)NCC1CCN(C(=O)C2(Nc3ccc(Cl)cc3)CCOCC2)CC1` [compound 155], for which, on 14-3-3σ/ERα [1] (1h), the “Percentage (%) bound of compound to 14-3-3σ, ERα 1h” value is on record as 0.6%. The “Percentage (%) bound of compound to 14-3-3σ, ERα 8h” value at 14-3-3σ/ERα [1] (8h) is 1.5%. Also, the “Percentage (%) bound of compound to 14-3-3σ, ERα 16h” value on 14-3-3σ/ERα [1] (16h) is 5.9%. At 14-3-3σ/ERα [1] (24h), the “Percentage (%) bound of compound to 14-3-3σ, ERα 24h” value amounted to 14.1%. For the same compound, the concentration giving a half-maximal response (EC50) at 14-3-3σ/ERα [2] was more than 150 µM. In addition, at 14-3-3σ/C-RAF (1h), the “Percentage (%) bound of compound to 14-3-3σ, CRAF 1h” value came to 0%. Also, the “Percentage (%) bound of compound to 14-3-3σ, CRAF 8h” value at 14-3-3σ/C-RAF (8h) came to 0%. Moreover, the results for the “Percentage (%) bound of compound to 14-3-3σ, CRAF 24h” value at 14-3-3σ/C-RAF (24h) and on 14-3-3σ/C-RAF (head prints 24h) were 1.0% and 0%, respectively. For the same compound, the “Percentage (%) bound of compound to 14-3-3σ, APO 1h” value at 14-3-3σ (1h) is on record as 0%. Also, at 14-3-3σ (8h), the “Percentage (%) bound of compound to 14-3-3σ, APO 8h” value stood at 0.7%. Further, on 14-3-3σ (16h), the “Percentage (%) bound of compound to 14-3-3σ, APO 16h” value worked out at 4.6%. Besides, at 14-3-3σ (24h), the “Percentage (%) bound of compound to 14-3-3σ, APO 24h” value was found to be 31.4%. At 14-3-3σ/ERα [3], the “activity in MS and FA assays (in words)” value was “inactive”.

Source of the values: publication PMC10515640, “Structure-Based Optimization of Covalent, Small-Molecule Stabilizers of the 14-3-3σ/ERα Protein–Protein Interaction from Nonselective Fragments” (Journal of the American Chemical Society, 2023).
